Bounds are passed on as bounds.

Assay [1] deals with pseudo-kinase domain (JH2) of human V617F mutant JAK2 (Homo sapiens (Human), UniProt O60674, F794H/V617F/W659A/W777A). Kind of assay: JAK2 LanthaScreen JH2-V617F Binding Assay. As to conditions: read-out: JH2 V617F Bind IC50. Here is the method: JAK2 JH2-V617F binding assay utilizes pseudo-kinase domain (JH2, amino-acids 536-812 with 3 surface mutations W659A, W777A, F794H) of human V617F mutant JAK2 expressed as C-terminal His-Avi-tagged, biotinylated protein in a baculovirus expression system (BPS Bioscience, Catalog #79498). The assay was conducted in black 384-well polystyrene plates in a final reaction volume of 20 μL. JAK2 JH2-V617F (0.26 nM) was incubated with compounds (100 nL serially diluted in DMSO) in the presence of 50 nM Fluorescent JAK2-JH2 Tracer (MedChem Express Catalog #HY-102055) and 0.25 nM Streptavidin-Tb cryptate (Cisbio Part #610SATLB) in assay buffer (50 mM Tris, pH=7.5, 10 mM MgCl2, 0.01% Brij-35, 0.1% BSA, 1 mM EGTA, 5% Glycerol and 5 mM DTT). Non-specific binding was accessed in the presence of 2 mM ATP. After incubation for 1 hour at 25° C., LanthaScreen signals were read on a PHERAstar FS plate reader (BMG LABTECH). Data was analyzed with IDBS XLfit and GraphPad Prism 5.0 software using a four parameter dose response curve to determine IC50 for each compound.
(In general: TR-FRET usually uses a lanthanide donor and a delayed reading to cut background.)

In assay [2] the target is catalytic domain (JH1) of human JAK2 (Homo sapiens (Human), UniProt O60674). Kind of assay: JAK2 LanthaScreen JH1 Binding Assay. As to conditions: read-out: JH1 Bind IC50. The procedure: JAK2 JH1 binding assay utilizes catalytic domain (JH1, amino acids 826-1132) of human JAK2 expressed as N-terminal FLAG-tagged, biotinylated protein in a baculovirus expression system (Carna Biosciences, Product #08-445-20N). The assay was conducted in black 384-well polystyrene plates in a final reaction volume of 20 μL. JAK2 JH1 (1.5 nM) was incubated with compounds (100 nL serially diluted in DMSO) in the presence of 50 nM fluorescent JAK2-JH1 tracer and 0.5 nM Streptavidin-Tb cryptate (Cisbio Part #610SATLB) in assay buffer (50 mM Tris, pH=7.5, 10 mM MgCl2, 0.01% Brij-35, 0.1% BSA, 1 mM EGTA, 5% Glycerol and 5 mM DTT). Non-specific binding was accessed in the presence of 2 mM ATP. After incubation for 2 hours at 25° C., LanthaScreen signals were read on a PHERAstar FS plate reader (BMG LABTECH). Data was analyzed with IDBS XLfit and GraphPad Prism 5.0 software using a four parameter dose response curve to determine IC50 for each compound.

The target of assay [3] is FLT3 (Homo sapiens (Human), UniProt P36888). Kind of assay: FLT3 Enzymatic Assay. The class given is biochemical. As to conditions: 1 mM ATP. The procedure: (§1) The kinase assays were carried out at room temperature in assay buffer (HEPES 50 mM, pH 7.0, NaN3 0.02%, BSA 0.01%, Orthovanadate 0.1 mM, DTT 1 mM, MgCl2 10 mM) in a final volume of 10 μL. Testing compounds were prepared by serial dilution in DMSO and transferred to the plate wells by ECHO liquid handler (Labcyte) with 0.5% DMSO in the final assay. […]. Reactions were initiated by the addition of 5 μL ATP in assay buffer. The final 10 μL kinase reaction consists of 0.011 nM FLT3, 1 mM ATP, 500 nM TK Substrate-biotin and SEB reagent 62.5 nM in assay buffer. […] The plates were then sealed and centrifuged at 1800 rpm for 2 minutes. After 60 minutes incubation at room temperature, the product activity was determined by measuring the fluorescence at 620 nm and 665 nm on Pherastar microplate reader (BMG Labtech). A ratio is calculated (665/620 nm) for each well. Wells with DMSO only were served as the positive controls and wells containing no ATP were used as negative controls. IC50 determination was performed by fitting the curve of percent control activity versus the log of the compound concentration using the GraphPad Prism 7.0 software.

For assay [4], the system named is FLT3. Kind of assay: FLT3 Enzymatic Assay. The assay is classed as biochemical. The procedure: as §1
Assay [5] has as its target TRKA (Homo sapiens (Human), UniProt P04629). Briefly: TRKA Enzymatic Assay. The class given is biochemical. As to conditions: 1 mM ATP. Here is the method: (§2) The kinase assays were carried out at 24° C. temperature in assay buffer (HEPES 50 mM, pH 7.0, NaN3 0.02%, BSA 0.01%, Orthovanadate 0.1 mM, DTT 1 mM, MgCl2 10 mM) in a final volume of 10 μL. Testing compounds were prepared by serial dilution in DMSO and transferred to the plate wells by ECHO liquid handler (Labcyte) with 0.5% DMSO in the final assay. […]. Reactions were initiated by the addition of 5 μL ATP in assay buffer. The final 10 μL kinase reaction consisted of 0.58 nM TRKA, 1 mM ATP, 500 nM TK Substrate-biotin and SEB reagent 62.5 nM in assay buffer. […] After 60 minutes incubation at room temperature, the product activity was determined by measuring the fluorescence at 620 nm and 665 nm on Pherastar microplate reader (BMG Labtech). A ratio was calculated (665/620 nm) for each well. Wells with DMSO only served as the positive controls and wells containing no ATP were used as negative controls. IC50 determination was performed by fitting the curve of percent control activity versus the log of the compound concentration using the Gene data.

Assay [6] concerns TRKA. Kind of assay: TRKA Enzymatic Assay. The class given is biochemical. The procedure:
as §2

Assay [7] has as its system STAT5 (Tyr694) phosphorylation in SET-2 cells. Briefly: STAT5 (Tyr694) Phosphorylation Cell Based Assay. As to conditions: Homo sapiens, 2 hours, read-out: SET2 IC50. The procedure:
SET-2 cells was purchased from DSMZ (Germany). RPMI1640 medium, Fetal Bovine Serum and 384-white sold flat-bottom small volume plate were purchased from Thermo Fisher Scientific (Waltham, MA). Phospho-STAT5 (Tyr694) HTRF kit was purchased from Perkin Elmer (Waltham, MA).
SET-2 cells were cultured in RPMI media with 20% FBS at 37° C. in humidified incubator supplied with 5% CO2. On the day of assay, the cells were centrifuged to remove the culture media and resuspended with prewarmed RPMI with 10% FBS. Testing compounds were prepared by serial dilution in DMSO and 50 nL/well test compounds were transferred to the 384 white low volume cell culture plate (Greiner Bio-one) by ECHO liquid handler (Labcyte). The cells were then dispensed with Multidrop (Thermo Fisher, Waltham, MA) at 10 μL/well (7×10^6 cells/mL) with 0.5% DMSO in the final assay. After the treated cells were incubated for 2 hours at 37° C./5% CO2 incubator, 4 μL/well supplemented lysis buffer (100× blocking buffer diluted 25 fold in 4× lysis buffer, Perkin Elmer) were added and incubated at room temperature for 90 min on orbital shaker at 600 rpm. Phospho-STAT5 Cryptate antibody and Phospho-STAT5 d2 antibody (1:1 vol/vol) were premixed and diluted 20 fold with in the detection buffer (Perkin Elmer). 4 μL of the premixed antibody solution were added to each well followed with 24 hours incubation at room temperature on orbital shaker at 600 rpm. The product activity was determined by measuring the fluorescence at 620 nm and 665 nm on Pherastar microplate reader (BMG Labtech). A ratio is calculated (665/620) for each well. Wells with DMSO only served as the positive controls and wells containing high concentration of control compound were used as negative controls. IC50 determination was performed by fitting the curve of percent control activity versus the log of the compound concentration using the GraphPad Prism 7.0 software.

Chain of TRKA (Homo sapiens (Human), UniProt P04629) (P04629 33-796, species assumed): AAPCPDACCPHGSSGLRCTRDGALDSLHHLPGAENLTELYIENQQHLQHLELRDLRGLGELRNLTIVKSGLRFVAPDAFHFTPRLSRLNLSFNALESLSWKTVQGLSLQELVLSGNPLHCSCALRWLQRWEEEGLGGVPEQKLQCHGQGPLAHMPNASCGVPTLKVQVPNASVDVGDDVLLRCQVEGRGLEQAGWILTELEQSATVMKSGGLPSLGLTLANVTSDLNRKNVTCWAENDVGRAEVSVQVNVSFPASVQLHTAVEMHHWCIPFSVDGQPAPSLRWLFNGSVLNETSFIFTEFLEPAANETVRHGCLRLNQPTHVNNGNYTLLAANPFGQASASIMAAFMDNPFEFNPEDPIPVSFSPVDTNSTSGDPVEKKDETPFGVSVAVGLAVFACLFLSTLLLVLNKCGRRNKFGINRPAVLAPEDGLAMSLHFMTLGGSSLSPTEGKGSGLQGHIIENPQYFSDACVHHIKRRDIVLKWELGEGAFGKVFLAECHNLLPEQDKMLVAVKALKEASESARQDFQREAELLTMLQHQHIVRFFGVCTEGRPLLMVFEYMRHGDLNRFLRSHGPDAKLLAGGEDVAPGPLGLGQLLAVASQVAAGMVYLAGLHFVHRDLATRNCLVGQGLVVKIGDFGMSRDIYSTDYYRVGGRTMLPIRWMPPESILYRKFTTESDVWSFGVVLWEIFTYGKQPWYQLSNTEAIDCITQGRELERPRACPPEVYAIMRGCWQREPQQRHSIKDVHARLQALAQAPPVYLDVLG
Chain of catalytic domain (JH1) of human JAK2 (O60674 826-1132): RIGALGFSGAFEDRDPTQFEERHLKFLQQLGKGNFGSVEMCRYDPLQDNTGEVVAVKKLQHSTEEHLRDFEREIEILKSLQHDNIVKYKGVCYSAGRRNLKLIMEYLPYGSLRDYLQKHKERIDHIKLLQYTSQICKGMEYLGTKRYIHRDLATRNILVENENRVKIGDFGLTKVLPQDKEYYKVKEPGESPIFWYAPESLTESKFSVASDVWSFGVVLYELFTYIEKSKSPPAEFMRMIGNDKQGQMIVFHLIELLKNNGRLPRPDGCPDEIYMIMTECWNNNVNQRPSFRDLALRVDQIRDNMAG
Chain of FLT3 (Homo sapiens (Human), UniProt P36888) (P36888 27-993, species assumed): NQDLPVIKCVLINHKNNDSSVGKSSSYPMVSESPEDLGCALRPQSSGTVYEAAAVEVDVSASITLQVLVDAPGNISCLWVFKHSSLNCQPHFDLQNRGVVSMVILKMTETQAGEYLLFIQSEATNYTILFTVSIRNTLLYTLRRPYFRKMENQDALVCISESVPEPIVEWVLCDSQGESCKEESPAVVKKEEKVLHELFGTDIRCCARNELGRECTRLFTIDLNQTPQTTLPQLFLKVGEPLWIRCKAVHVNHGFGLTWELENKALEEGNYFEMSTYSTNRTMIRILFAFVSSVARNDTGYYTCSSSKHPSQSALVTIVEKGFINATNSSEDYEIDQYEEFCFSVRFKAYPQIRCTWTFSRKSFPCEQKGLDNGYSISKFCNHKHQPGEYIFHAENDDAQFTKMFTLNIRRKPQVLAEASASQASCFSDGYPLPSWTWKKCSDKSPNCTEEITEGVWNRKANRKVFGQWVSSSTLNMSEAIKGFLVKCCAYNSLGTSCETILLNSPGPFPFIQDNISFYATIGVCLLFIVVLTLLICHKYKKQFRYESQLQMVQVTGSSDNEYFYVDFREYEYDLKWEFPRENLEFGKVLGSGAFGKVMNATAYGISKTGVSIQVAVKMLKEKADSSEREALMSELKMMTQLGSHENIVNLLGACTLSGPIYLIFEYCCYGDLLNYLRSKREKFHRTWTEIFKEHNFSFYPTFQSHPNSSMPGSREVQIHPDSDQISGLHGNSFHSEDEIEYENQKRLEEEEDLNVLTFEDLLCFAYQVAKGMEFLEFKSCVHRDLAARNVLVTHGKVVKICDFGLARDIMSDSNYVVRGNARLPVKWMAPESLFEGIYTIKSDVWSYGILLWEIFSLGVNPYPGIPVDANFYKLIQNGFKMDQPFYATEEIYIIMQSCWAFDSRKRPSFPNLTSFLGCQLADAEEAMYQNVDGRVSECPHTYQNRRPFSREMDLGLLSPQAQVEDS
Chain of pseudo-kinase domain (JH2) of human V617F mutant JAK2 (O60674 536-812 V617F/W659A/W777A/F794H): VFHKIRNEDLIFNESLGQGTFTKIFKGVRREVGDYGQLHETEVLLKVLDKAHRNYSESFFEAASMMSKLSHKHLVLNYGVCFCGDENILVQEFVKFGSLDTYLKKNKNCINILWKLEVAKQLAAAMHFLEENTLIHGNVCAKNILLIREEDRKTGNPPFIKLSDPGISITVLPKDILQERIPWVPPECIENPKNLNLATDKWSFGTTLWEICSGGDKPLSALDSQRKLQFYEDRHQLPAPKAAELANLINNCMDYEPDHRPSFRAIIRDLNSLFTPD

Consider `COC(=O)N[C@@H]1CC[C@@H](n2c(=O)n(C)c3cnc4[nH]c(-c5ccc(C(=O)N6C7CCC6COC7)c(OC)c5)c(-c5cccc(F)c5)c4c32)C1` [Example 5, Methyl ((1R,3R)-3-(7-(4-(3-oxa-8-azabicyclo[3.2.1]octane-8-carbonyl)-3-methoxyphenyl)-8-(3-fluorophenyl)-3-methyl-2-oxo-3,6-dihydroimidazo[4,5-d]pyrrolo[2,3-b]pyridin-1(2H)-yl)cyclopentyl)carbamate], for which the IC50 (in general, the midpoint of a concentration-inhibition curve) in assay [1] is not above 0.01 µM; in assay [2], more than 1 µM; against FLT3 [3], 1.25 to 2.5 µM; at TRKA [5] it was 0.25 to 1.25 µM; in assay [7] it was more than 0.8 µM. Also, in the assay on FLT3 [4], the “Selectivity FLT3/JH2 V617F” value was “***** (selectivity of >5000-fold to ≤12500-fold)”. Further, in the assay with TRKA [6], the “Selectivity TRKA/JH2 V617F” value is “** (selectivity of >500-fold to ≤1500-fold)”.

With `CCNC(=O)c1ccc(-c2[nH]c3ncc4c(c3c2-c2ccc3c(cnn3C(C)C)c2)n([C@@H]2CC[C@@H](NC(=O)OC)C2)c(=O)n4C)cc1OC` [Example 18, Methyl ((1R,3R)-3-(7-(4-(ethylcarbamoyl)-3-methoxyphenyl)-8-(1-isopropyl-1H-indazol-5-yl)-3-methyl-2-oxo-3,6-dihydroimidazo[4,5-d]pyrrolo[2,3-b]pyridin-1(2H)-yl)cyclopentyl)carbamate], the IC50 in assay [1] is not above 0.01 µM; in assay [2] it was more than 1 µM; at FLT3 [3] it was 0.25 to 1.25 µM; against TRKA [5], 1.25 to 2.5 µM; in assay [7], not above 0.3 µM. Further, the “Selectivity FLT3/JH2 V617F” value in the assay on FLT3 [4] is “**** (selectivity of >1750-fold to ≤5000-fold)”. Besides, in the assay on TRKA [6], the “Selectivity TRKA/JH2 V617F” value is listed as “***** (selectivity of >5000-fold to ≤12500-fold)”.

On to `COC(=O)N[C@@H]1CC[C@@H](n2c(=O)n(C)c3cnc4[nH]c(-c5ccc(C(=O)NCCCNc6ccccc6)c(F)c5)c(-c5ccc6c(cnn6C(C)C)c5)c4c32)C1` [Example 7, Methyl ((1R,3R)-3-(7-(3-fluoro-4-((3-(phenylamino)propyl)carbamoyl)phenyl)-8-(1-isopropyl-1H-indazol-5-yl)-3-methyl-2-oxo-3,6-dihydroimidazo[4,5-d]pyrrolo[2,3-b]pyridin-1(2H)-yl)cyclopentyl)carbamate], for which the half-maximal inhibitory concentration (IC50) in assay [1] was not above 0.01 µM; in assay [2] it was more than 1 µM; against FLT3 [3], more than 2.5 µM; against TRKA [5], more than 2.5 µM; in assay [7], more than 0.8 µM. For the same compound, the “Selectivity FLT3/JH2 V617F” value in the assay on FLT3 [4] was “***** (selectivity of >5000-fold to ≤12500-fold)”. Moreover, the “Selectivity TRKA/JH2 V617F” value with TRKA [6] is listed as “***** (selectivity of >5000-fold to ≤12500-fold)”.

As for `COCCNC(=O)c1ccc(-c2[nH]c3ncc4c(c3c2-c2ccc3c(cnn3C(C)C)c2)n([C@@H]2CC[C@@H](NC(=O)OC)C2)c(=O)n4C)cc1` [Example 19, Methyl ((1R,3R)-3-(8-(1-isopropyl-1H-indazol-5-yl)-7-(4-((2-methoxyethyl)carbamoyl)phenyl)-3-methyl-2-oxo-3,6-dihydroimidazo[4,5-d]pyrrolo[2,3-b]pyridin-1(2H)-yl)cyclopentyl)carbamate], the IC50 in assay [1] is not above 0.01 µM; in assay [2] it was more than 1 µM; at FLT3 [3] it was 0.25 to 1.25 µM; against TRKA [5], 1.25 to 2.5 µM; in assay [7], not above 0.3 µM. For the same compound, in the assay with FLT3 [4], the “Selectivity FLT3/JH2 V617F” value is “**** (selectivity of >1750-fold to ≤5000-fold)”. Besides, in the assay on TRKA [6], the “Selectivity TRKA/JH2 V617F” value is “****** (selectivity of >12500-fold)”.

As to `COC(=O)N[C@@H]1CC[C@@H](n2c(=O)n(C)c3cnc4[nH]c(-c5ccc(C(=O)N6CCOCC6)cc5)c(-c5ccc6c(cnn6C(C)C)c5)c4c32)C1` [Example 20, Methyl ((1R,3R)-3-(8-(1-isopropyl-1H-indazol-5-yl)-3-methyl-7-(4-(morpholine-4-carbonyl)phenyl)-2-oxo-3,6-dihydroimidazo[4,5-d]pyrrolo[2,3-b]pyridin-1(2H)-yl)cyclopentyl)carbamate], the IC50 is not above 0.01 µM in assay [1]; more than 1 µM in assay [2]; 0.25 to 1.25 µM at FLT3 [3]; 0.25 to 1.25 µM against TRKA [5]; not above 0.3 µM in assay [7]. For the same compound, the “Selectivity FLT3/JH2 V617F” value in the assay with FLT3 [4] is on record as “***** (selectivity of >5000-fold to ≤12500-fold)”. Further, in the assay on TRKA [6], the “Selectivity TRKA/JH2 V617F” value is recorded as “***** (selectivity of >5000-fold to ≤12500-fold)”.

Regarding `COC(=O)N[C@@H]1CC[C@@H](n2c(=O)n(C)c3cnc4[nH]c(-c5ccc(C(=O)N6CCC(F)(F)CC6)c(F)c5)c(-c5ccc6c(cnn6C(C)C)c5)c4c32)C1` [Example 24, Methyl ((1R,3R)-3-(7-(4-(4,4-difluoropiperidine-1-carbonyl)-3-fluorophenyl)-8-(1-isopropyl-1H-indazol-5-yl)-3-methyl-2-oxo-3,6-dihydroimidazo[4,5-d]pyrrolo[2,3-b]pyridin-1(2H)-yl)cyclopentyl)carbamate], the IC50 is not above 0.01 µM in assay [1]; more than 1 µM in assay [2]; more than 2.5 µM against FLT3 [3]; more than 2.5 µM against TRKA [5]; 0.3 to 0.8 µM in assay [7]. In addition, the “Selectivity FLT3/JH2 V617F” value with FLT3 [4] is recorded as “****** (selectivity of >12500-fold)”. The “Selectivity TRKA/JH2 V617F” value with TRKA [6] is “****** (selectivity of >12500-fold)”.
